Measurements: article PMC3479967 (Evidence-based Complementary and Alternative Medicine : eCAM, 2012)
Read-outs that look alike come from different tables or passages of the source.

Biological target: T1, UGT1A4 (Homo sapiens, UniProt P22310)
T1 construct: purchased BD Gentest Corp. (Woburn, MA, USA); host or cells: baculovirus-infected insect cells
T1 sequence (P22310 29-534): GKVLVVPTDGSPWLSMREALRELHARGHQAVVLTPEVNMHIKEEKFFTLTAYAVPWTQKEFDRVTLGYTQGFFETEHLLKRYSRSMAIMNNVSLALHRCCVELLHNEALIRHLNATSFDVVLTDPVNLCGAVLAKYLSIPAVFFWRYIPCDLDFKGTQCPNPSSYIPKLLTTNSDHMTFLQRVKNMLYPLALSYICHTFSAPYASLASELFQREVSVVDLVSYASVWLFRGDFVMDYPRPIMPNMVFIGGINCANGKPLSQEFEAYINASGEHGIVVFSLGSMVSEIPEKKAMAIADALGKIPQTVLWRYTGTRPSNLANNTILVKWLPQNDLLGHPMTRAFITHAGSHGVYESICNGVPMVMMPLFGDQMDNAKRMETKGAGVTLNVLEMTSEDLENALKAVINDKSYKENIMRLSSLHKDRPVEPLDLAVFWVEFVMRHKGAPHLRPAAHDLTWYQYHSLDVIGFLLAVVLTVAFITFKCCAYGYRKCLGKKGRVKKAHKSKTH
Assay: Inhibition of recombinant UGT1A4 activity (TFP glucuronidation)
Format: biochemical
Method: TFP was used as the substrate for UGT1A4. Trifluoperazine glucuronide (TFPG) formation was measured using a modification of the method reported. […] Reactions were initiated by the addition of UDPGA and incubations were performed at 37°C in a shaking water bath for 20 min. Incubations were terminated by the addition of 4% acetic acid/96% methanol (0.2 mL) and then centrifuged at 20,500 ×g for 15 min. A 40 μL aliquot of the supernatant fraction was injected into the HPLC column. […] A gradient mobile phase consisting initially of 30 : 70, mobile phase A (acetonitrile) verse mobile phase B (0.5% formic acid/water) was brought to a composition of 90 : 10 in 10 min which was held for 7 min, all at a flow rate of 1 mL/min. Column eluant was monitored by UV absorbance 256 nm. […] The negative controls are the incubation without UDPGA.

[1] = recombinant human UGT1A4, 50 μM TFP, mean ± SD, read-out: IC50 for inhibition of UGT1A4 activity

Row | IC50 [µM] | Compound | IC50 [1] [µM]
1 | – | COc1ccc(-c2oc3c(CC=C(C)C)c(O[C@@H]4O[C@H](CO)[C@@H](O)[C@H](O)[C@H]4O)cc(O)c3c(=O)c2O[C@@H]2O[C@@H](C)[C@H](O)[C@@H](O)[C@H]2O)cc1 [Icariin] | 42.8 ± 2.4
2 | – | COc1ccc(-c2oc3c(CC=C(C)C)c(O[C@@H]4O[C@H](CO)[C@@H](O)[C@H](O)[C@H]4O)cc(O)c3c(=O)c2O)cc1 [Icariside I] | > 100
3 | > 100 | COc1ccc(-c2oc3c(CC=C(C)C)c(O)cc(O)c3c(=O)c2O)cc1 [Icaritin] | –
